In ChEMBL document CHEMBL3885881, “DrugMatrix”:

Species on record: Rattus norvegicus
Assay: DrugMatrix - Regimen: Daily Repeat
Format: toxicity, organism-based, Sprague-Dawley
Parameters: regimen Daily Repeat, gender Male, age 6-8 weeks
Conditions: in vivo, po, route oral GAVAGE, vehicle 100 % WATER; for ABSOLUTE BASOPHIL / ABSOLUTE EOSINOPHIL / ABSOLUTE LYMPHOCYTE / ABSOLUTE MONOCYTE / ABSOLUTE SEGMENTED NEUTROPHIL / BASOPHIL / EOSINOPHIL / ERYTHROCYTE COUNT / HEMATOCRIT / HEMOGLOBIN / LEUKOCYTE COUNT / LYMPHOCYTE / MEAN CORPUSCULAR HEMOGLOBIN / MEAN CORPUSCULAR HEMOGLOBIN CONCENTRATION / MONOCYTE / NEUTROPHIL / NUCLEATED RED BLOOD CELLS / PLATELET COUNT: tissue Blood; for ALANINE AMINOTRANSFERASE / ALBUMIN / ALKALINE PHOSPHATASE / BLOOD UREA NITROGEN / CARBON DIOXIDE / CHLORIDE / CHOLESTEROL / CREATINE PHOSPHOKINASE / CREATININE / GLUCOSE / LACTATE DEHYDROGENASE / LIPASE / PHOSPHORUS / POTASSIUM / SODIUM / TOTAL BILIRUBIN / TOTAL PROTEIN / URIC ACID: tissue Plasma
[1] = 15 mg/kg, 120 h, dose level Low, time 5 day
[2] = 150 mg/kg, 72 h, dose level High, time 3 day
[3] = 150 mg/kg, 120 h, dose level High, time 5 day

With `Cc1ccc(NC(=O)c2ccc(CN3CCN(C)CC3)cc2)cc1Nc1nccc(-c2cccnc2)n1` [IMATINIB] as the molecule, how does the “ABSOLUTE BASOPHIL” value [1] read?
The value was 0 CELLS/uL.

And the “ABSOLUTE EOSINOPHIL” value [1]?
Its value is 72.33 CELLS/uL.

And the “ABSOLUTE LYMPHOCYTE” value [1]?
The value was 6282 CELLS/uL.

What about the “ABSOLUTE MONOCYTE” value [1] of the same molecule?
The value was 25.33 CELLS/uL.

What about the “ABSOLUTE SEGMENTED NEUTROPHIL” value [1] of the same molecule?
Its value is 653.67 CELLS/uL.

And the BASOPHIL [1]?
The BASOPHIL was 0%.

And the EOSINOPHIL [1]?
The EOSINOPHIL was 1%.

And the “ERYTHROCYTE COUNT” value [1]?
Its value is 5.21 x10E6/uL.

And the HEMATOCRIT [1]?
Its HEMATOCRIT is 33.07%.

What about the HEMOGLOBIN [1] of the same molecule?
The HEMOGLOBIN was 12.73 G/DL.

What about the “LEUKOCYTE COUNT” value [1] of the same molecule?
Its value is 7.03 x10E3/uL.

What about the LYMPHOCYTE [1] of the same molecule?
The LYMPHOCYTE was 89.67%.

What about the “MEAN CORPUSCULAR HEMOGLOBIN” value [1] of the same molecule?
The value was 24.43 pg.

What about the “MEAN CORPUSCULAR HEMOGLOBIN CONCENTRATION” value [1] of the same molecule?
The value was 38.53 G/DL.

And the MONOCYTE [1]?
The MONOCYTE was 0.33%.

What about the NEUTROPHIL [1] of the same molecule?
Its NEUTROPHIL is 9%.

What about the “NUCLEATED RED BLOOD CELLS” value [1] of the same molecule?
Its value is 0 /100WBC.

What about the “PLATELET COUNT” value [1] of the same molecule?
The value was 1004.67 x10E3/uL.

What about the “ALANINE AMINOTRANSFERASE” value [1] of the same molecule?
Its value is 55.67 u/L.

What about the ALBUMIN [1] of the same molecule?
The ALBUMIN was 4.2 G/DL.

What about the “ALKALINE PHOSPHATASE” value [1] of the same molecule?
Its value is 357.67 u/L.

What about the “BLOOD UREA NITROGEN” value [1] of the same molecule?
Its value is 14.67 mg/dL.

And the “CARBON DIOXIDE” value [1]?
The value was 28 mmol/L.

What about the CHLORIDE [1] of the same molecule?
Its CHLORIDE is 100.33 MEQ/L.

What about the CHOLESTEROL [1] of the same molecule?
Its CHOLESTEROL is 60 mg/dL.

And the “CREATINE PHOSPHOKINASE” value [1]?
The value was 404.33 u/L.

What about the CREATININE [1] of the same molecule?
Its CREATININE is 0.17 mg/dL.

What about the GLUCOSE [1] of the same molecule?
The GLUCOSE was 140.33 mg/dL.

And the “LACTATE DEHYDROGENASE” value [1]?
The value was 183.67 u/L.

And the LIPASE [1]?
The LIPASE was 8 u/L.

What about the PHOSPHORUS [1] of the same molecule?
Its PHOSPHORUS is 11.1 mg/dL.

And the POTASSIUM [1]?
Its POTASSIUM is 5.69 MEQ/L.

What about the SODIUM [1] of the same molecule?
The SODIUM was 145.7 MEQ/L.

What about the “TOTAL BILIRUBIN” value [1] of the same molecule?
Its value is 0.3 mg/dL.

What about the “TOTAL PROTEIN” value [1] of the same molecule?
The value was 6 G/DL.

What about the “URIC ACID” value [1] of the same molecule?
The value was 0.73 mg/dL.

And the “ABSOLUTE BASOPHIL” value [2]?
Its value is 0 CELLS/uL.

And the “ABSOLUTE EOSINOPHIL” value [2]?
Its value is 64 CELLS/uL.

What about the “ABSOLUTE LYMPHOCYTE” value [2] of the same molecule?
Its value is 9025.33 CELLS/uL.

And the “ABSOLUTE MONOCYTE” value [2]?
The value was 0 CELLS/uL.

And the “ABSOLUTE SEGMENTED NEUTROPHIL” value [2]?
The value was 844 CELLS/uL.

And the BASOPHIL [2]?
The BASOPHIL was 0%.

And the EOSINOPHIL [2]?
Its EOSINOPHIL is 0.67%.

And the “ERYTHROCYTE COUNT” value [2]?
The value was 5.45 x10E6/uL.

What about the HEMATOCRIT [2] of the same molecule?
The HEMATOCRIT was 34.93%.

What about the HEMOGLOBIN [2] of the same molecule?
The HEMOGLOBIN was 13 G/DL.

What about the “LEUKOCYTE COUNT” value [2] of the same molecule?
Its value is 9.93 x10E3/uL.

What about the LYMPHOCYTE [2] of the same molecule?
The LYMPHOCYTE was 90.33%.

And the “MEAN CORPUSCULAR HEMOGLOBIN” value [2]?
Its value is 23.83 pg.

What about the “MEAN CORPUSCULAR HEMOGLOBIN CONCENTRATION” value [2] of the same molecule?
The value was 37.2 G/DL.

What about the MONOCYTE [2] of the same molecule?
The MONOCYTE was 0%.

What about the NEUTROPHIL [2] of the same molecule?
Its NEUTROPHIL is 9%.

What about the “NUCLEATED RED BLOOD CELLS” value [2] of the same molecule?
The value was 0 /100WBC.

And the “PLATELET COUNT” value [2]?
The value was 1243.33 x10E3/uL.

And the “ALANINE AMINOTRANSFERASE” value [2]?
Its value is 86 u/L.

What about the ALBUMIN [2] of the same molecule?
Its ALBUMIN is 4.3 G/DL.

And the “ALKALINE PHOSPHATASE” value [2]?
Its value is 449.67 u/L.

What about the “BLOOD UREA NITROGEN” value [2] of the same molecule?
The value was 14.67 mg/dL.

And the “CARBON DIOXIDE” value [2]?
Its value is 26.33 mmol/L.

What about the CHLORIDE [2] of the same molecule?
The CHLORIDE was 105.33 MEQ/L.

What about the CHOLESTEROL [2] of the same molecule?
The CHOLESTEROL was 61.33 mg/dL.

And the “CREATINE PHOSPHOKINASE” value [2]?
The value was 205.67 u/L.

And the CREATININE [2]?
Its CREATININE is 0.17 mg/dL.

What about the GLUCOSE [2] of the same molecule?
Its GLUCOSE is 154 mg/dL.

What about the “LACTATE DEHYDROGENASE” value [2] of the same molecule?
The value was 135.33 u/L.

What about the LIPASE [2] of the same molecule?
The LIPASE was 9 u/L.

And the PHOSPHORUS [2]?
The PHOSPHORUS was 11 mg/dL.

And the POTASSIUM [2]?
Its POTASSIUM is 5.83 MEQ/L.

What about the SODIUM [2] of the same molecule?
Its SODIUM is 145.03 MEQ/L.

And the “TOTAL BILIRUBIN” value [2]?
The value was 0.23 mg/dL.

And the “TOTAL PROTEIN” value [2]?
Its value is 5.97 G/DL.

And the “URIC ACID” value [2]?
The value was 1.3 mg/dL.

And the “ABSOLUTE BASOPHIL” value [3]?
The value was 0 CELLS/uL.

What about the “ABSOLUTE EOSINOPHIL” value [3] of the same molecule?
Its value is 37 CELLS/uL.

What about the “ABSOLUTE LYMPHOCYTE” value [3] of the same molecule?
The value was 11284 CELLS/uL.

And the “ABSOLUTE MONOCYTE” value [3]?
Its value is 0 CELLS/uL.

And the “ABSOLUTE SEGMENTED NEUTROPHIL” value [3]?
Its value is 1012.33 CELLS/uL.

And the BASOPHIL [3]?
The BASOPHIL was 0%.

What about the EOSINOPHIL [3] of the same molecule?
Its EOSINOPHIL is 0.33%.

And the “ERYTHROCYTE COUNT” value [3]?
The value was 5.01 x10E6/uL.

What about the HEMATOCRIT [3] of the same molecule?
Its HEMATOCRIT is 32.5%.

And the HEMOGLOBIN [3]?
Its HEMOGLOBIN is 12.27 G/DL.

And the “LEUKOCYTE COUNT” value [3]?
The value was 12.33 x10E3/uL.

What about the LYMPHOCYTE [3] of the same molecule?
Its LYMPHOCYTE is 91.33%.

What about the “MEAN CORPUSCULAR HEMOGLOBIN” value [3] of the same molecule?
The value was 24.53 pg.

And the “MEAN CORPUSCULAR HEMOGLOBIN CONCENTRATION” value [3]?
Its value is 37.73 G/DL.

And the MONOCYTE [3]?
Its MONOCYTE is 0%.

And the NEUTROPHIL [3]?
Its NEUTROPHIL is 8.33%.

What about the “NUCLEATED RED BLOOD CELLS” value [3] of the same molecule?
Its value is 0 /100WBC.

What about the “PLATELET COUNT” value [3] of the same molecule?
The value was 1206.67 x10E3/uL.

And the “ALANINE AMINOTRANSFERASE” value [3]?
The value was 77.33 u/L.

What about the ALBUMIN [3] of the same molecule?
The ALBUMIN was 4.37 G/DL.

What about the “ALKALINE PHOSPHATASE” value [3] of the same molecule?
Its value is 359.33 u/L.

What about the “BLOOD UREA NITROGEN” value [3] of the same molecule?
The value was 17.33 mg/dL.

And the “CARBON DIOXIDE” value [3]?
The value was 27.33 mmol/L.

And the CHLORIDE [3]?
The CHLORIDE was 100 MEQ/L.

And the CHOLESTEROL [3]?
The CHOLESTEROL was 49.67 mg/dL.

And the “CREATINE PHOSPHOKINASE” value [3]?
The value was 251 u/L.

And the CREATININE [3]?
Its CREATININE is 0.21 mg/dL.

And the GLUCOSE [3]?
The GLUCOSE was 162 mg/dL.

And the “LACTATE DEHYDROGENASE” value [3]?
The value was 163.67 u/L.

And the LIPASE [3]?
The LIPASE was 9 u/L.

And the PHOSPHORUS [3]?
The PHOSPHORUS was 10.77 mg/dL.

And the POTASSIUM [3]?
The POTASSIUM was 5.96 MEQ/L.

And the SODIUM [3]?
Its SODIUM is 141.83 MEQ/L.

And the “TOTAL BILIRUBIN” value [3]?
Its value is 0.2 mg/dL.

And the “TOTAL PROTEIN” value [3]?
The value was 5.9 G/DL.

What about the “URIC ACID” value [3] of the same molecule?
The value was 1.47 mg/dL.
